# Assay results: ChEMBL document CHEMBL1201862, “PubChem BioAssay data set” (2004)
# Activity calls are given as the source filed them.
# What was measured:
# [1] = Shn3 3'UTR reporter inhibitors, dose response, cell-based, Clone20 osteoblasts, firefly luciferase, cherry-picked (AID 624132); format: functional;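 further: firefly luciferase luminescence from reporter carrying the Shn3 3'UTR in osteoblasts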
# [2] = control 3'UTR Renilla luciferase suppression, dose response, counter-screen for Shn3 inhibitor project, cell-based, Clone20-Shn3RL, cherry-picked (AID 624133); format: functional
# [3] = tested on: SN12K1; assay: cells; format: functional; details: Homo sapiens
# [4] = tested on: P388; assay: cells; format: functional; details: Mus musculus
# [5] = tested on: P388/ADR; assay: cells; format: functional; details: Mus musculus
# [6] = growth suppression of beta-catenin-knockout colon cells, dose response, cell-based, HCT116, human colon tumor (AID 1045); format: functional;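 further: HCT116 colon tumor cells with beta catenin knocked out; cells exposed to compound for 60 hours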
# [7] = growth suppression of PTEN-null colon cells, dose response, cell-based, HCT116 PTEN knockout (AID 1047); format: functional;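 further: HCT116 colon tumor cells with PTEN knocked out; cells exposed to compound for 60 hours before readout; potency for loss of cell viability measured by luminescence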
# [8] = target: T1, Heat shock factor protein 1 (Mus musculus, UniProt P38532); assay: HSF1 potentiators in luciferase reporter cells, confirmation, cell-based, NIH3T3, luminescence, dose retest (AID 435004); format: functional;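 further: stress induced by proteasome inhibitor MG132 added 30 min after compound; luciferase reporter driven by HSF1 response element in NIH3T3 cells; actives raise luminescence as potentiators of the MG132 stress response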
# T1 sequence (P38532 whole entry): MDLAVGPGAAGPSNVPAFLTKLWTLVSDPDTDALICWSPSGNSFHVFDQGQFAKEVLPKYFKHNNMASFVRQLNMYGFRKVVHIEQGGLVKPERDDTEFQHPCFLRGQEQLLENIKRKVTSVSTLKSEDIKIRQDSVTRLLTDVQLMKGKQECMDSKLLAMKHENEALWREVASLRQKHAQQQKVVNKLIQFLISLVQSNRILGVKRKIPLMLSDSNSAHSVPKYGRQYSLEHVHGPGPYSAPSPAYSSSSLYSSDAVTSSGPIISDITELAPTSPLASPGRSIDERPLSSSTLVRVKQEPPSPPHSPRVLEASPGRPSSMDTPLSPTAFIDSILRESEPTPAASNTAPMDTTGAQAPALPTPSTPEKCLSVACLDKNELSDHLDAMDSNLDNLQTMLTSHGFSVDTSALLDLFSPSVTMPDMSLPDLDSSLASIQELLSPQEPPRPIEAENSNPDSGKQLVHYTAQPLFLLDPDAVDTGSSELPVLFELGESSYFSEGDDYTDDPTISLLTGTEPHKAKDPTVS
# [9] = target: T2, Replicative DNA helicase DnaB (Mycobacterium tuberculosis, UniProt P9WMR3); assay: DnaB intein splicing inhibitors, dose response, biochemical, cell-free fluorescence (AID 449749); format: functional
# T2 sequence (P9WMR3 whole entry): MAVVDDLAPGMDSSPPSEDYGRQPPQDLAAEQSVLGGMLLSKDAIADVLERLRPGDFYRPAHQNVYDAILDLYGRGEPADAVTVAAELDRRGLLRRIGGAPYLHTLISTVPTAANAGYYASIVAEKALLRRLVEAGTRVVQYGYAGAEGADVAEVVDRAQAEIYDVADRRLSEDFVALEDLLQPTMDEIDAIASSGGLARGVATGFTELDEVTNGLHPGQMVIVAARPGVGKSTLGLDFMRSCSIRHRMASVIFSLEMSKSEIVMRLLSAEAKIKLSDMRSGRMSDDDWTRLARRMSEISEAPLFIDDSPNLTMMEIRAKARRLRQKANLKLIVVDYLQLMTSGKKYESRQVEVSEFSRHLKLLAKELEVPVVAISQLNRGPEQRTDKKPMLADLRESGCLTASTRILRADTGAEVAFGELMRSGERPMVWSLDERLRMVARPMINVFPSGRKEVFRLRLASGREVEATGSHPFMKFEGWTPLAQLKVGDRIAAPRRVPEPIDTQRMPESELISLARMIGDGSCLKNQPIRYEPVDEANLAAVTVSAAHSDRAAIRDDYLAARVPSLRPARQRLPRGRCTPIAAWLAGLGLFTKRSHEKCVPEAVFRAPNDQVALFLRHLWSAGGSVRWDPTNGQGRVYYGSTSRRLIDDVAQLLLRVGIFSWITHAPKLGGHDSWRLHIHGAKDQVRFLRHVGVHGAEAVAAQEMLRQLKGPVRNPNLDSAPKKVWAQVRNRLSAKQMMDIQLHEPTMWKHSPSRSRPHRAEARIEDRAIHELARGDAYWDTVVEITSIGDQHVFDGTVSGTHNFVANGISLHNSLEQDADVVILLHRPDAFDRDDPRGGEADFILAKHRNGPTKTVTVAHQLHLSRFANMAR
# [10] = target: T3, Protein RecA (Mycobacterium tuberculosis, UniProt P9WHJ3); assay: Fluorescence Cell-Free Homogeneous Dose Retest to Identify Inhibitors of RecA-Intein Splicing Activity. [Related pubchem assays (depositor defined):AID2097, AID2223, AID489010, AID492950]; format: functional
# T3 sequence (P9WHJ3 whole entry): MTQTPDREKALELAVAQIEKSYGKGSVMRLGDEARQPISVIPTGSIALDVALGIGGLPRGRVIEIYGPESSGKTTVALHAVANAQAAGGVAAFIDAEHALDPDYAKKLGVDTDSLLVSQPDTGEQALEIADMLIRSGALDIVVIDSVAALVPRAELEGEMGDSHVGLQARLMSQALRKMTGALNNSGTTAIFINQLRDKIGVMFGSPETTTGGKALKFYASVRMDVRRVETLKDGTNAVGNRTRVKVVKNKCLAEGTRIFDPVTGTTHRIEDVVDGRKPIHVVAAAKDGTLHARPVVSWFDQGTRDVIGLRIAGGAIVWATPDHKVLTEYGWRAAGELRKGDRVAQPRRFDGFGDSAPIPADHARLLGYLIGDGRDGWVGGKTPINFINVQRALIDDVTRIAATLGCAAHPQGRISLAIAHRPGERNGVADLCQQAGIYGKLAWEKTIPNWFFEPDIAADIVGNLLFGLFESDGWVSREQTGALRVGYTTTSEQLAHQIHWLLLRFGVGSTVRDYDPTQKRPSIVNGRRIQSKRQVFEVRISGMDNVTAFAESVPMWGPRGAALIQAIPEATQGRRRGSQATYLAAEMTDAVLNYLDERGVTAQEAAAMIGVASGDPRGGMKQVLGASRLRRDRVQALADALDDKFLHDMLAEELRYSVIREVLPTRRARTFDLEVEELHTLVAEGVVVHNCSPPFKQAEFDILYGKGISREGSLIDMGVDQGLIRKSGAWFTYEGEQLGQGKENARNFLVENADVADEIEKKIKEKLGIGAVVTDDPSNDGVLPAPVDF
# [11] = cytotoxicity toward DRD oncogenic fibroblasts, dose response, cell-based, non-viral oncogenic, luminescence (AID 1934); format: functional; details: Homo sapiens
# [12] = tested on: BJ; assay: cytotoxicity toward BJ-TERT fibroblasts, dose response, cell-based, RAS-independent, luminescence (AID 1933); format: functional; details: Homo sapiens
# [13] = tested on: BJ; assay: cells; format: functional, cell-based; details: Homo sapiens
# [14] = target: T4, Cytochrome P450 1A2 (Homo sapiens, UniProt P05177);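 further: PubChem cytochrome P450 panel assay, CYP1A2 panel member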
# T4 sequence (P05177 whole entry): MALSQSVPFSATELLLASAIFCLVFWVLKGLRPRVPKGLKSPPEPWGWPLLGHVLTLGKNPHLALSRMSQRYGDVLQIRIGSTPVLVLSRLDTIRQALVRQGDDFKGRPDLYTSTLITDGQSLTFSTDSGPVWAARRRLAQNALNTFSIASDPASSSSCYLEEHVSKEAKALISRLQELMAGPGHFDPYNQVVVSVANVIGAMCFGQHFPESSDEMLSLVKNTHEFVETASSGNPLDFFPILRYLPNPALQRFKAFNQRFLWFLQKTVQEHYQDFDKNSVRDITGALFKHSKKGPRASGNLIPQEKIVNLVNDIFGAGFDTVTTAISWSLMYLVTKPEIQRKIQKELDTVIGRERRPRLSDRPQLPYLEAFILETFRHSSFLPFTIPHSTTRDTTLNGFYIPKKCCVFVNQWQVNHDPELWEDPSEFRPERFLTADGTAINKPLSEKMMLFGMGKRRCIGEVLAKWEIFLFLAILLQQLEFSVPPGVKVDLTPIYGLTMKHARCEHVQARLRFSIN
# [15] = target: T5, RNA-binding protein pos-1 (Caenorhabditis elegans, UniProt G5EF15); assay: inhibitors of POS-1/mex-3 RNA binding, dose response, biochemical, fluorescence polarization (AID 1964);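 further: purified POS-1 fused to maltose binding protein made in E. coli; potency of compounds blocking POS-1 binding to fluorescent RNA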
# T5 sequence (G5EF15 whole entry): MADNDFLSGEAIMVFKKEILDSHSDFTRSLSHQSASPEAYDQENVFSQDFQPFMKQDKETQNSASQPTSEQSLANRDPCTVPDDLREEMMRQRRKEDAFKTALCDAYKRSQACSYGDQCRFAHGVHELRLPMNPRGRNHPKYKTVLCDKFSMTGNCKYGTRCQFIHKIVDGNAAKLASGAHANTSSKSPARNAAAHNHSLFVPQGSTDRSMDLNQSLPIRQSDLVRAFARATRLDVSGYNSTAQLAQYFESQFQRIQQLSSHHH
# [16] = target: Induced myeloid leukemia cell differentiation protein Mcl-1 (Homo sapiens, UniProt Q07820); format: functional
# [17] = target: T6, Zinc finger protein mex-5 (Caenorhabditis elegans, UniProt Q9XUB2); assay: MEX-5/TCR-2 RNA interaction inhibitors, dose response, biochemical, C. elegans, fluorescence polarization (AID 1960)
# T6 sequence (Q9XUB2 whole entry): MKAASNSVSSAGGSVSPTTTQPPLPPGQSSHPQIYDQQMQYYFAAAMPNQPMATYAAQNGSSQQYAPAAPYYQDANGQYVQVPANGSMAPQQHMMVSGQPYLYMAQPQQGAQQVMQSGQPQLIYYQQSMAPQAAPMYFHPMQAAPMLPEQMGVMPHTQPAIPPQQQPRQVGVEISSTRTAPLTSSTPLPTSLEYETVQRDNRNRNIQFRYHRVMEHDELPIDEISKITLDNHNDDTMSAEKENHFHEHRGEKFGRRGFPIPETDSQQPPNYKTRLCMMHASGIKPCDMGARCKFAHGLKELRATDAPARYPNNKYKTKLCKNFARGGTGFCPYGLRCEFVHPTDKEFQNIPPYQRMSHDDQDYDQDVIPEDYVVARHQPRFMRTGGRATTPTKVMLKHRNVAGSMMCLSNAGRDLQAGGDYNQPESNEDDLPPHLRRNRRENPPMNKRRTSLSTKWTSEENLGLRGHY
# Chain of Induced myeloid leukemia cell differentiation protein Mcl-1 (Q07820 whole entry): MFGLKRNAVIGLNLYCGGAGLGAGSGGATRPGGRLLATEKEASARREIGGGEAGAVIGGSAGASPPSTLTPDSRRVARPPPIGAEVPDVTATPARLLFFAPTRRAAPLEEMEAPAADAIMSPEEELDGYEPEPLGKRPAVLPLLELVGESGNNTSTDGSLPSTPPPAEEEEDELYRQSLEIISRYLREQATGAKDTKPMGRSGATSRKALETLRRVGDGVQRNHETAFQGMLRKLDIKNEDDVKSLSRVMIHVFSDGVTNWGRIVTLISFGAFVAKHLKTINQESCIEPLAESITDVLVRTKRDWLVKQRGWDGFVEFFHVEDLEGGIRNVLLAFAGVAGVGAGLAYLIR
SMILES,GI50 [3],GI50 [4],GI50 [5],other results
C=CCNc1nc(N2CCOCC2)c(C#N)c2c1CN(C)CC2,–,–,–,AC50 [1]: > 70 µM (inactive); AC50 [2]: 28.2 µM (active)
CC12CCC3C(CCC4(O)C=CCCC34C=O)C1(O)CC(O)C2c1ccc(=O)oc1 (stereo not drawn),0.0624 µM (active),336 µM (inactive),> 500 µM (inactive),–
COc1cc(NC(=O)COc2cccc3c2OC(C)(C)C3)cc(OC)c1OC,–,–,–,AC50 [1]: 4.38 µM (active); AC50 [2]: 3.03 µM (active)
Cc1cccc(N2CCN(C(=O)c3cn(C)c(=O)c4c3c3ccccc3n4C)CC2)c1C,–,–,–,EC50 [6]: 18.6 µM (active); EC50 [7]: 19.1 µM (active)
C=CCNC(=O)C(C)C1CCC2(C)C=CC(=O)C(C)=C2C1O (stereo not drawn),> 100 µM (inactive),> 100 µM (inactive),> 100 µM (inactive),–
CCOC(=O)C(C)NC(=O)N(C)C12CC3CC(CC(C3)C1)C2 (stereo not drawn),190 µM (inactive),52.2 µM (inactive),123 µM (inactive),–
CCCCNC1C(CC)C(CCC)C(C#N)(C#N)C1(C#N)C#N (stereo not drawn),–,–,–,EC50 [8]: 11.1 µM (active); AC50 [9]: > 380 µM (inactive); EC50 [10]: 2.36 µM (active)
CCOC(=O)COc1ccccc1/C=C1\CCC(CN(C)C)C1=O (stereo not drawn),1.87 µM (inactive),0.342 µM (active),0.436 µM (active),–
CC(C)=CCc1c(O)ccc2c1OC1c3ccc(O)c(CC=C(C)C)c3OCC21 (stereo not drawn),4.92 µM (inactive),5.55 µM (inactive),7.31 µM (inactive),–
CC1(C)S[C@@H]2[C@H](NC(=O)CCC[C@@H](N)C(=O)O)C(=O)N2[C@H]1C(=O)O [ADICILLIN],> 50 µM (inactive),> 50 µM (inactive),> 50 µM (inactive),–
CN(C)CCNc1c([N+](=O)[O-])cc2c3c(cccc13)C(=O)N(CCN(C)C)C2=O,7.83 µM (inactive),0.925 µM (active),1.87 µM (inactive),–
CC1(CO)C(O)CCC2(C)C1CCC1CC3CC12CCC3(O)CO (stereo not drawn),1.16 µM (inactive),0.394 µM (active),0.42 µM (active),–
COc1ccc(/C=C/C(=O)Oc2ccc(/C=N/NC(=O)c3ccccc3)cc2)cc1OC,–,–,–,EC50 [6]: 25.8 µM (active); EC50 [7]: 27.7 µM (active)
O=S1(=O)N2CN3CN(C2)CN1C3,> 100 µM (inactive),18.5 µM (inactive),21.2 µM (inactive),–
O=[N+]([O-])c1ccc(Nc2cccc3c4cc[nH]c(-c5ccccc5)c-4nc23)c([N+](=O)[O-])c1,10 µM (inactive),20.1 µM (inactive),14.3 µM (inactive),–
O=C(CSc1nc2ccccc2nc1SCC(=O)N1CCOCC1)N1CCOCC1,–,–,–,AC50 [9]: 194 µM (active); EC50 [10]: > 380 µM (inactive)
O=C(O)CCC(NC(=O)c1ccc(Nc2cnc3cc(C(F)(F)F)ccc3n2)cc1)C(=O)O (stereo not drawn),> 100 µM (inactive),> 100 µM (inactive),> 100 µM (inactive),–
CCc1ccc(/C=C2/SC(=S)N(CCC(=O)NCCCN3CCOCC3)C2=O)cc1,–,–,–,EC50 [11]: > 38 µM (not active); EC50 [12]: 1.32 µM (active); EC50 [13]: 14.5 µM (active)
Cc1c(C2=NN=C(/N=N/c3c(O)cccc3O)/C2=C/c2ccccc2)c(=O)n(-c2ccccc2)n1C,> 100 µM (inactive),> 100 µM (inactive),> 100 µM (inactive),–
COc1cc(C2C(C#N)=C(N)OC3=C2C(=O)CCC3)c([N+](=O)[O-])cc1OC (stereo not drawn),–,–,–,AC50 [14]: 31.6 µM (inconclusive); EC50 [15]: 15.8 µM (active); IC50 [16]: 3.9 µM (active); EC50 [17]: 13.8 µM (active)
Cc1ccc(S(=O)(=O)c2nc(-c3ccc(F)cc3)oc2SCC(=O)NCC2CCCO2)cc1 (stereo not drawn),–,–,–,EC50 [6]: 35.3 µM (active); EC50 [7]: 83.1 µM (active)
